Here are results for eleven compounds from patent US20250333419A1, “BICYCLIC COMPOUNDS AS INHIBITORS OF WRN” (Incyte Corporation, priority 2023, published 2025).

Test [1] deals with T1, WRN (Homo sapiens, UniProt Q14191).
T1 construct: A His-tagged construct of WRN (AA S2-S1235) was produced and used for the ATPase assay; His; made in house; host or cells: Sf9 insect cells (baculovirus)
The experiment in a line: WRN ATPase activity assay (ADP-Glo). The class given is biochemical. Conditions: IC50, 1-hr pre-incubation with enzyme; geometric means of at least 2 independent replicates. The procedure: Compounds of the Examples were tested for WRN ATPase activity. WRN ATPase activity catalyzes ATP hydrolysis to produce ADP and phosphate. DNA encoding the target protein, 6×HIS-TEV-WRN-517-945, was produced, cloned and transfected as detailed in Example D. The amount of ADP produced was measured using ADP-Glo™ Kinase Assay kit from Promega Corporation in a Greiner white regular volume 384 wells assay plate (Greiner #781075). Data was normalized to a standard curve generated using various ADP concentrations and the corresponding luminescent signal intensities at each concentration. The assay conditions were optimized for enzyme concentration (WRN), substrate concentrations (ATP & dsDNA), and the linearity of the ATPase reaction, in the following assay buffer: 50 mM Tris-HCl, pH-7.5, 2 mM MgCl2, 50 mM NaCl, 1 mM EGTA, 0.01% P-20, 0.05% BSA, and 2 mM DTT prepared with nuclease free water.
A serial dilution (1:3 scheme) of the compounds were prepared in neat DMSO, with 100 nL of the compounds dispensed in the 384 wells assay plate. An 1-hr pre-incubation of the compounds with enzyme was included. A His-tagged construct of WRN (AA S2-S1235) was produced and used for the ATPase assay. Maximum inhibition control wells were set up with the addition of only assay buffer, and no inhibition control wells were set up with neat DMSO without test compounds. The reaction was initiated by addition of 5 μL substrate mix (200 μM ultrapure ATP, and 50 nM dsDNA prepared in assay buffer) and incubated at 25° C. for 35 min. A forked dsDNA oligomer substrate was prepared by annealing equal amounts of oligo GPat-1 ([BHQ2][…]) and oligo GPat-2 ([…][TAM]) and was used as dsDNA substrate for WRN ATPase assay. A typical ATPase reaction consists of 25 nM forked dsDNA, 100 μM ATP, and 1 nM WRN prepared in assay buffer. The WRN ATPase reaction was stopped by the addition of 5 μL of ADP-Glo Reagent from ADP-Glo™ Kinase Assay kit and incubated for 40 min to deplete the unreacted ATP. Afterwards, 5 μL of Kinase Detection Reagent from the ADP-Glo™ Kinase Assay kit was added and incubated for 1 hr for the development of luminescence signal.
Luminesce signals were measured on BMG PHERAstar FSX using luminescence protocol. Data analysis was carried out using Genedata software following % of control normalization. Fitting parameters include dose response IC50, Hill slope (n), maximum inhibition (S∞), and minimum inhibition (S0). The reported IC50 values for compounds in this invention are the geometric means of at least 2 independent replicates.
On the technique in general: In ADP-Glo the light output rises with the ADP produced.

The target in test [2] is T1, WRN. The experiment in a line: WRN Helicase activity assay (fluorescence DNA unwinding). The class given is biochemical. Conditions: IC50, 1-hr pre-incubation with enzyme; geometric means of at least 2 independent replicates. The procedure:
Compounds of the examples were tested for WRN helicase activity. DNA encoding the target protein, 6×HIS-TEV-WRN-517-945, was produced, cloned and transfected as detailed in Example D. To determine the inhibitory properties of the compounds, a 384 wells plate-based Helicase assay was set up to measure the extent of DNA unwinding (Helicase) activity of WRN. The WRN Helicase assay was designed to measure increase in fluorescence signal using a fluorescence based, donor-quencher paired forked dsDNA oligomer substrate (custom synthesis from Sigma-Aldrich) prepared by annealing equal amounts of oligo GPat-1 ([BHQ2][…]) and oligo GPat-2 ([…][TAM]). Continuous measurement of fluorescent signal was used to optimize the buffer conditions, concentration of enzyme (WRN), concentration of substrates (ATP & dsDNA), and the linearity of the Helicase reaction. All solutions were prepared in the following assay buffer: 50 mM Tris-HCl, pH-7.5, 2 mM MgCl2, 50 mM NaCl, 1 mM EGTA, 0.01% P-20, 0.05% BSA, and 2 mM DTT prepared with nuclease free water.
A serial dilution (1:3 scheme) of the compounds was prepared in neat DMSO and 100 nL of the compounds was dispensed in the Greiner black low volume (Greiner #784076) 384 wells assay plate. An 1-hr pre-incubation of the compounds with enzyme was included. A His-tagged construct of WRN (AA S2-S1235) was produced and used for the ATPase assay. Maximum inhibition control wells were set up with the addition of only assay buffer, and no inhibition control wells were set up with neat DMSO without test compounds. The reaction was initiated by addition of 5 μL substrate mix (200 μM ultrapure ATP, and 50 nM dsDNA prepared in assay buffer) and incubated at 25° C. for 35 min. A typical Helicase reaction consists of 25 nM forked dsDNA, 100 μM ATP, and 1 nM WRN prepared in assay buffer. The WRN Helicase reaction was quenched by the addition of 5 μL ‘STOP’ solution containing 100 mM EDTA (final EDTA concentration 33.33 mM) prepared in assay buffer. The plates were read on BMG PHERAstar FSX using 540/590 module to measure an increase of fluorescence. Data analysis was carried out using the Genedata software following % of control normalization. Fitting parameters include dose response IC50, Hill slope (n), maximum inhibition (S∞), and minimum inhibition (S0). The reported IC50 values for compounds in this invention are the geometric means of at least 2 independent replicates.

Molecules are shown by their SMILES.

T1 sequence (Q14191 2-1235): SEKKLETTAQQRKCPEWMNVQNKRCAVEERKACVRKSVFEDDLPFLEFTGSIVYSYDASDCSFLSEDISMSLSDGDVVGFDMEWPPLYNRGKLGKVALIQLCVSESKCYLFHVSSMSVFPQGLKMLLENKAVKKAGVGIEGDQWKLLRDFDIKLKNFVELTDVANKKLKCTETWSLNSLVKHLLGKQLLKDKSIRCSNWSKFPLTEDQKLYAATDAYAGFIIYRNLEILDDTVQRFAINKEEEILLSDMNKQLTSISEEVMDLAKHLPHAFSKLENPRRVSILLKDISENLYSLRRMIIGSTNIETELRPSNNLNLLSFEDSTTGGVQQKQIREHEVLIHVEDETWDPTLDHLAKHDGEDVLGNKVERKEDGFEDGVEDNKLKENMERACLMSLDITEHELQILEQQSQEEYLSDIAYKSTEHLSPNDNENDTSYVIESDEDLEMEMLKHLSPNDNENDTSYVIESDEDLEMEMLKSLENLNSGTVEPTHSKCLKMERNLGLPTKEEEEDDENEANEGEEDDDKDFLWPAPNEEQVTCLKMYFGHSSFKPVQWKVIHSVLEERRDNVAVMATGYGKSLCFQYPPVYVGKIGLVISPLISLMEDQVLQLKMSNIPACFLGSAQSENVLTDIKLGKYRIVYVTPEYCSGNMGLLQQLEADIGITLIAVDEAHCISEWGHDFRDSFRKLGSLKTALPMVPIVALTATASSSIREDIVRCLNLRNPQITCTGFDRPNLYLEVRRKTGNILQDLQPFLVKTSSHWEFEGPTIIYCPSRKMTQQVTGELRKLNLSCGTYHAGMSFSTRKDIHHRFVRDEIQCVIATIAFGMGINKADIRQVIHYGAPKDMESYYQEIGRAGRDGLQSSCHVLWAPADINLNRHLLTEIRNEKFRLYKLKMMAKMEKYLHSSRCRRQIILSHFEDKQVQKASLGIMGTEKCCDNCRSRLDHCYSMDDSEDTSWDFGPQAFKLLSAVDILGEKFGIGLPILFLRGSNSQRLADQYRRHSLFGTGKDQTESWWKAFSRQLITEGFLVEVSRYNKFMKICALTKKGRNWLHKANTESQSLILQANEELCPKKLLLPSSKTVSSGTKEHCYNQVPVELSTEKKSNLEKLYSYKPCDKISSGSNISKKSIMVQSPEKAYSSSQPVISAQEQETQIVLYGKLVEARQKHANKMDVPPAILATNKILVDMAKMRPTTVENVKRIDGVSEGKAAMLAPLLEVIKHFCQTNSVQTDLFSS

One may read the IC50 as the concentration that inhibits the measured activity by half. A low value points to inhibition by little substance. Regarding `C=CC(=O)N1CCc2cccc(-c3c(CC)n(CC(=O)Nc4ccc(C(F)(F)F)cc4)c4nc(C5=CCOCC5)nn4c3=O)c21` [Example 15, 2-(6-(1-Acryloylindolin-7-yl)-2-(3,6-dihydro-2H-pyran-4-yl)-5-ethyl-7-oxo-[1,2,4]triazolo[1,5-a]pyrimidin-4(7H)-yl)-N-(4-(trifluoromethyl)phenyl)acetamide], the IC50 against WRN [1] and against WRN [2] was below 100 nM each time.

For `C=CC(=O)Nc1ccccc1-c1c(CC)n(CC(=O)Nc2ccc(C(F)(F)F)cc2Cl)c2nc(C3=CCOCC3)nn2c1=O` [Example 16, N-(2-(4-(2-((2-Chloro-4-(trifluoromethyl)phenyl)amino)-2-oxoethyl)-2-(3,6-dihydro-2H-pyran-4-yl)-5-ethyl-7-oxo-4,7-dihydro-[1,2,4]triazolo[1,5-a]pyrimidin-6-yl)phenyl)acrylamide], the concentration for half-maximal inhibition (IC50) on WRN [1] and on WRN [2] was below 100 nM in each case.

For `C=CC(=O)Nc1ccccc1-c1c(CC)n(CC(=O)Nc2ccc(C(F)(F)F)cc2)c2nc(C3CC3)nn2c1=O` [Example 17, N-(2-(2-Cyclopropyl-5-ethyl-7-oxo-4-(2-oxo-2-((4-(trifluoromethyl)phenyl)amino)ethyl)-4,7-dihydro-[1,2,4]triazolo[1,5-a]pyrimidin-6-yl)phenyl)acrylamide], the IC50 against WRN [1] and at WRN [2] was below 100 nM in each case.

In the case of `C=CC(=O)Nc1ccccc1-c1c(CC)n(CC(=O)Nc2ccc(C(F)(F)F)cc2)c2nc(C)nn2c1=O` [Example 18, N-(2-(5-Ethyl-2-methyl-7-oxo-4-(2-oxo-2-((4-(trifluoromethyl)phenyl)amino)ethyl)-4,7-dihydro-[1,2,4]triazolo[1,5-a]pyrimidin-6-yl)phenyl)acrylamide], the IC50 against WRN [1] and against WRN [2] was 500 to 1000 nM each time.

Take `C=CC(=O)Nc1ccccc1-c1c(CC)n(CC(=O)Nc2ccc(C(F)(F)F)cc2)c2nc(C3CCC3)nn2c1=O` [Example 19, N-(2-(2-Cyclobutyl-5-ethyl-7-oxo-4-(2-oxo-2-((4-(trifluoromethyl)phenyl)amino)ethyl)-4,7-dihydro-[1,2,4]triazolo[1,5-a]pyrimidin-6-yl)phenyl)acrylamide]: the IC50 on WRN [1] and on WRN [2] was 100 to 500 nM throughout.

For `C=CC(=O)Nc1ccccc1-c1c(CC)n(CC(=O)Nc2ccc(C(F)(F)F)cc2)c2nc(C3CCCCC3)nn2c1=O` [Example 20, N-(2-(2-Cyclohexyl-5-ethyl-7-oxo-4-(2-oxo-2-((4-(trifluoromethyl)phenyl)amino)ethyl)-4,7-dihydro-[1,2,4]triazolo[1,5-a]pyrimidin-6-yl)phenyl)acrylamide], the IC50 on WRN [1] and against WRN [2] was 100 to 500 nM throughout.

On to `C=CC(=O)Nc1ccccc1-c1c(CC)n(CC(=O)Nc2ccc(C(F)(F)F)cc2Cl)c2nc(C(C)C)nn2c1=O` [Example 21, N-(2-(4-(2-((2-Chloro-4-(trifluoromethyl)phenyl)amino)-2-oxoethyl)-5-ethyl-2-isopropyl-7-oxo-4,7-dihydro-[1,2,4]triazolo[1,5-a]pyrimidin-6-yl)phenyl)acrylamide], for which the IC50 against WRN [1] and at WRN [2] was 100 to 500 nM in each case.

As to `C=CC(=O)Nc1ccccc1-c1c(CC)n(CC(=O)Nc2ccc(C(F)(F)F)cc2)c2nc(-c3cccs3)nn2c1=O` [Example 22, N-(2-(5-Ethyl-7-oxo-4-(2-oxo-2-((4-(trifluoromethyl)phenyl)amino)ethyl)-2-(thiophen-2-yl)-4,7-dihydro-[1,2,4]triazolo[1,5-a]pyrimidin-6-yl)phenyl)acrylamide], the IC50 against WRN [1] and against WRN [2] was below 100 nM throughout.

As to `C=CC(=O)Nc1ccccc1-c1c(CC)n(CC(=O)Nc2ccc(C(F)(F)F)cc2)c2nc(C3CCOCC3)nn2c1=O` [Example 23, N-(2-(5-Ethyl-7-oxo-4-(2-oxo-2-((4-(trifluoromethyl)phenyl)amino)ethyl)-2-(tetrahydro-2H-pyran-4-yl)-4,7-dihydro-[1,2,4]triazolo[1,5-a]pyrimidin-6-yl)phenyl)acrylamide], the IC50 on WRN [1] was 100 to 500 nM; against WRN [2], 500 to 1000 nM.

In the case of `C=CC(=O)Nc1ccccc1-c1c(CC)n(CC(=O)Nc2ccc(C(F)(F)F)cc2)c2nc(C3CCNCC3)nn2c1=O` [Example 24, N-(2-(5-Ethyl-7-oxo-4-(2-oxo-2-((4-(trifluoromethyl)phenyl)amino)ethyl)-2-(piperidin-4-yl)-4,7-dihydro-[1,2,4]triazolo[1,5-a]pyrimidin-6-yl)phenyl)acrylamide], the half-inhibitory concentration (IC50) on WRN [1] and against WRN [2] was 100 to 500 nM in each case.

In the case of `C=CC(=O)Nc1ccccc1-c1c(CC)n(CC(=O)Nc2ccc(C(F)(F)F)cc2)c2nc(C3CCN(C(=O)C=C)CC3)nn2c1=O` [Example 25, N-(2-(2-(1-Acryloylpiperidin-4-yl)-5-ethyl-7-oxo-4-(2-oxo-2-((4-(trifluoromethyl)phenyl)amino)ethyl)-4,7-dihydro-[1,2,4]triazolo[1,5-a]pyrimidin-6-yl)phenyl)acrylamide], the IC50 against WRN [1] and on WRN [2] was below 100 nM in each case.
